Experimental data published in patent US20210228523A1, “MODULATORS OF SESTRIN-GATOR2 INTERACTION AND USES THEREOF” (Navitor Pharmaceuticals, Inc., priority 2017, published 2021).

Columns and labels:
[1] = test system: point mutant form of Sestrin2 unable to bind leucine; experiment: ILBA with Flag-tagged point mutant Sestrin2; type: binding, human
Description: This assay was also performed in cultured human cells over-expressing Sestrin2 N-terminally fused to a Flag tag. In this version of the assay, the procedure remained the same, but immunoblotting was performed with a mouse anti-Flag antibody (#F3165, SIGMA).

[2] = target: T1, Sestrin2 (Homo sapiens, UniProt P58004); experiment: Indirect ligand binding assay (ILBA, Method 7), immunoprecipitation with CST anti-Sestrin2 antibody; set-up: endogenous in cells; host or cells: unnamed human cell line (crude lysate after 1 h amino acid starvation); conditions: crude lysate of amino acid-starved human cell line; 1 hour incubation
T1 sequence (P58004 1-480): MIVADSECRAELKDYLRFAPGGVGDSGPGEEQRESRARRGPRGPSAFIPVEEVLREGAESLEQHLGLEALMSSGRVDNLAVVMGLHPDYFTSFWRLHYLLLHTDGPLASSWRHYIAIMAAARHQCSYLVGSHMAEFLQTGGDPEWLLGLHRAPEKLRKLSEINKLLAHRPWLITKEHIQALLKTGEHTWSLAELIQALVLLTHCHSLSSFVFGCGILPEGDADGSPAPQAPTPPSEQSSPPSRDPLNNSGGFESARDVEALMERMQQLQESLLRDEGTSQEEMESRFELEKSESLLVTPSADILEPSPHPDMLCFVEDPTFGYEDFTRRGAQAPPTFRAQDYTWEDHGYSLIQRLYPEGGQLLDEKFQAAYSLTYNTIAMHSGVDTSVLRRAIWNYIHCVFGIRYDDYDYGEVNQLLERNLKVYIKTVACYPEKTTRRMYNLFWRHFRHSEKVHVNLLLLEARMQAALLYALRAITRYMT
Description: Conversely, compounds that destabilized Sestrin2 as measured by thermal shift assay increased the affinity of the CST antibody for non-denatured Sestrin2. […] In one version, the assay was performed with crude lysate generated from a human cell line after a 1-hour period of amino acid starvation (cells are lysed in 1% Triton, 10 mM beta-glycerol phosphate, 10 mM sodium pyrophosphate, 40 mM HEPES [pH 7.4], 150 mM NaCl and 2.5 mM MgCl2). […] After compound incubation, samples were subjected to immunoprecipitation with the CST anti-Sestrin2 antibody for 1.5 hours followed by a 30-minute incubation with protein-A sepharose as described in L. Chantranupong, et al., Cell Reports 9:1-8 (2014). The sepharose conjugated antibody-protein complex was precipitated via centrifugation and the flow-through was subjected to a second round of immunoprecipitation with a rabbit polyclonal anti-Sestrin2 antibody (Protein Tech, #10795-1-AP) to determine that total Sestrin2 protein levels between samples were equal. SDS-PAGE was performed with the immunoprecipitation samples followed by western-blot with the mouse monoclonal anti-Sestrin2 antibody from SIGMA (cat #WH0083667M3). […] This version of the assay also measured increased instability of Sestrin2 induced by incubation with compounds.

[3] = test system: marmosets (Callithrix jacchus); experiment: Marmoset Human Threat Test (HTT); type: in vivo; conditions: Example J, ketamine 0.3 mg/kg i.m.
Text: Marmoset Human Threat Test (HTT): Marmosets were challenged by the presence of a human observer over a long period of time on a regular basis. Such chronic stimulation is known to increase plasma cortisol and the subsequent increase in hypothalamic-pituitary-adrenal function contributed to the pathophysiology of depressive illness.
Study Design: Thirty-six (36) marmosets (Callithrix jacchus) were paired and divided randomly divided into treatment groups. Twenty-four hours before the Human Threat Test (HTT) animals were treated with vehicle, ketamine (0.3 mg/kg; i.m.) or NV-5138 (160 mg/kg; p.o.). The following day, the same animals were treated with either vehicle (s.c.) or chloriazepoxide (1 mg/kg; s.c.). The animals were then monitored for the number of threat postures over a two (2) minutes period with the presence of a human observer. Locomotor activity was monitored over the same period, as measured by the number of jumps observed.

[4] = test system: Male Sprague Dawley rats; experiment: Novelty Suppressed Feeding Test (NSFT) with home cage feeding control; type: in vivo, rat; conditions: Example I; Ket 10 mg/kg i.p. on alternate days (day 0, 2, 4, 6); day 9
Description: Behavioral Analysis Using the Novelty Suppressed Feeding Test (NSFT): The NSFT was conducted as previously described (Warner-Schmidt, J. L. & Duman, R. S. PNAS 104(11): 4647-52 (2007)). Rats were fasted in their home cages for 20 hr and then placed in a Plexiglas open field (76.5 cm×76.5 cm×40 cm) with a small amount of food in the center. Animals were allowed to explore the open field for 8 min and the latency to feed (s) was recorded.
Chronic Unpredictable Stress (CUS) Conditions: Rats were exposed to a variable sequence of 12 unpredictable stressors, preventing habituation as described (Li, N. et al., Biol Psychiatry 69(8): 754-61 (2011)). The following twelve stressors were applied (2 per day, for 25 days): cage rotation, light on, light off, cold stress, isolation, swim stress, food and water deprivation, wet bedding, stroboscope, cage tilt, odor exposure and group housing. The animals in non-stressed (NS) groups were housed normally without the application of external stressors. Both NS and CUS rats were handled and weighed weekly.
Study Design. Thirty-two (32) male Sprague Dawley Male rats weighing between 175 and 200 g were randomized into 4 study groups (n=8/treatment group), following a 5-day acclimation period. On study day 0, rats received a single dose of either saline (Sal) or ketamine (Ket) in Groups 1 and 2, respectively, by intraperitoneal injection (i.p.). The rats in Group 3 and 4 received a single dose of the NV-5138 vehicle (Veh, 0.5% Methylcellulose/0.1% Tween-80) or NV-5138 (160 mg/kg), respectively, by oral gavage. All rats were subjected to the FUST on day 1, 24 hrs after dosing. On day 2, 48 hrs after dosing, the LMA of all rats was measured in an open field. Rats were then fasted for 20 hrs and subjected to the NSFT, 72 hrs post-dose.
Study Design: Fifty-six (56) male rats weighing between 175 and 200 g were randomized into 4 study groups (n=14/group), following a 5-day acclimation period. On study day minus 20, two groups of rats were subjected to CUS for 25 days and two groups of rats were housed normally serving as the NS group. On the day 21 of the CUS protocol, rats received a single dose of either Veh or NV-5138 (160 mg/kg) by oral gavage (day 0). The SPT and NSFT were performed 24 and 48 hrs post-administration (days 1 and 2), respectively. Upon completion of the behavioral tests, after 25 days of the CUS protocol a second dose of NV-5138 or Veh was administered on day 5 and rats were sacrificed 24 hrs later by conscious decapitation. Crude synaptosomes were prepared from the PFC and the synaptic proteins, GluR1 and PSD95 were quantitated by WB.
Study Design. Twenty (20) male rats weighing between 175 and 200 g were randomized into 3 study groups (n=6-7/group), following a 5-day acclimation period. All rats were surgically implanted with bilateral IT cannulas in the PFC 2 weeks prior to dosing. […] Thirty minutes following the intrathecal infusions, either NV-5138 vehicle (Veh-NV, 0.5% methylcellulose/0.1% Tween-80) or NV-5138 (160 mg/kg) was administered by oral gavage. Each treatment group was assessed at the designated time following oral dosing in FST 24 hrs (day 1) LMA 48 hrs (day 2) and the NSFT 72 hrs (day 3 following a 20 hr period of fasting). LMA was measured to rule out overall changes in generally locomotor activity. The study design is presented in Table 11 with timeline of surgical procedures, test article administration and behavioral tests is provided in FIG. 20
Study Design. Forty-eight (48) male rats weighing between 175 and 200 g were randomized into 6 study groups (n=8/group), following a 5-day acclimation period. A single dose of all test articles was administered on day 0 and the behavioral tests were performed 3, 7 and 10 days later. Groups 1 and 2 were dosed on day 0 with NV-5138 (160 mg/kg by oral gavage) and Ket (10 mg/kg by i.p. injection), respectively and subjected to a FST on day 3. […]

SMILES	decrease in affinity of the CST antibody upon ligand binding [1]	decrease in intensity of the Sestrin2 band (immunoprecipitated with CST anti-Sestrin2 antibody) [2] [%]	animals that developed mild emesis ([3]; half of the animals (6 out of the 12 dosed)) [animals]	HTT, number of threat postures ([3]; twenty-four hours after acute administration)	NSFT [4]
CC(C)C[C@H](N)C(=O)O [leucine]	not observed	≥ 50	–	–	–
CNC1(c2ccccc2Cl)CCCCC1=O (centres unmarked) [Ketamine, reference compound]	–	–	6	induces an anxiolytic/antidepressant-like profile	significant effects
